Active and inactive are the calls of the source. The rule behind the calls is not given here.

The target in this test is Dual specificity protein phosphatase 1 (Homo sapiens) (UniProt P28562). In words: MKP-1 phosphatase inhibitors, repeat potency, dose response, biochemical, reproducibility testing, probe assessment (AID 563). The note with it: recombinant MKP-1 phosphatase, fluorescence intensity.
Dual specificity protein phosphatase 1 (Homo sapiens), sequence (P28562 whole entry, looked up): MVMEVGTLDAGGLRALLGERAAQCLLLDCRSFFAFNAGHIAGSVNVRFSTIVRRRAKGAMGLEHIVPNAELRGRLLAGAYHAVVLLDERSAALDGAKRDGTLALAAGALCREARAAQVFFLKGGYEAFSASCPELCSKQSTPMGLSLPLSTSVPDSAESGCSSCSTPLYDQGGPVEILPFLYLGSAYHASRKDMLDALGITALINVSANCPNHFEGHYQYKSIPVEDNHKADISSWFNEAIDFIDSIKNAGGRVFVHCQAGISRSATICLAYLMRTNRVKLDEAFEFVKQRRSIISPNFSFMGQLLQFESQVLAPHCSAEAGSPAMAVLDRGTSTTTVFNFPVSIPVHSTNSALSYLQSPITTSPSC
On to `CC(C)Sc1nc2sc3c(c2c2nnc(SCC(=O)NCc4ccco4)n12)CCCC3`, for which the IC50 (usually the concentration needed to halve the response being measured) was 22.8 µM.
With `Cc1ccc(-c2csc(NC(=O)c3ccno3)n2)cc1` the figure was 49.7 µM; with `O=C1C(C2=C(O)c3ccccc3C2=O)=Nc2ccccc21`, > 50 µM (inactive); with `CCCCCNC(=O)c1ccc2c(=O)[nH]c3c(C(=O)NCC4CCCO4)sc(=S)n3c2c1` (stereo not drawn), 37 µM.
As for `Cc1cccc(N2CCN(C(=O)Cc3c(C(=O)O)[nH]c4ccc(Cl)cc34)CC2)c1C`, the figure is 46.9 µM; as for `CCOC(=O)c1ccc2c(c1)C1C=CCC1C(C(=O)O)N2` (stereo not drawn), 32.8 µM; as for `Cc1ccc(C)n1-c1cccc(C(=O)O)c1`, 17.1 µM.
Regarding `Cc1nc2c(C(=O)NCCC3=CCCCC3)c[nH]n2c(=O)c1Cl`, the concentration for half-maximal inhibition (IC50) is 49.8 µM.

These data come from PubChem BioAssay AID563 (University of Pittsburgh Molecular Library Screening Center, 2006).
